Results taken from US20070123426A1, “Mixtures” (BASF Aktiengesellschaft, priority 2005, published 2007).

Legend:
Assay in all cases: greenhouse post-emergence herbicidal test
Type in all cases: in vivo
SORBI (Sorghum bicolor) = conditions: SORBI; a) 25 g/ha, MSO or COC 1.25%, scale 0-100
Excerpt: (§1) The culture vessels used were plastic flowerpots filled, as substrate, with sandy loam comprising about 3% of humus. The seeds of the test plants were sown separated according to species.
(§2) For the post-emergence treatment, the test plants were initially cultivated to a height of 3-17 cm according to their habit and only then treated with the active compounds, which had been suspended or emulsified in water. To this end, the test plants were either sown directly and cultivated in the same vessels, or they were initially cultivated separately as seedlings and transplanted into the test vessels a few days prior to the treatment. According to the species, the plants were kept at temperatures of from 15° C. to 25° C. or from 20 to 35° C. The trial period extended over 3 weeks. During this time the plants were tended and their response to the individual treatments was evaluated.
(§3) The application in the greenhouse was carried out at a spray liquor application rate of 200 l/ha.

SOLNI (Solanum nigrum) = conditions: SOLNI; a) 3.125 g/ha, MSO or COC 1.25%, scale 0-100
Excerpt: as §1, §2, §3

HELAN (Helianthus annua) = conditions: HELAN; a) 6.25 g/ha, MSO or COC 1.25%, scale 0-100
Excerpt: as §1, §2, §3

[1] = system: PANDI (Panicum dichotomiflorum); conditions: PANDI; a) 25 g/ha, MSO or COC 1.25%, scale 0-100
Excerpt: as §1, §2, §3

[2] = system: PANMI (Panicum milliaceum); conditions: PANMI; a) 12.5 g/ha, MSO or COC 1.25%, scale 0-100
Excerpt: as §1, §2, §3

[3] = system: ECHCG (Echinochloa crus-galli); conditions: MSO or COC 1.25%, scale 0-100
Excerpt: as §1, §2, §3

SETVI (Setaria viridis) = conditions: SETVI; a) 12.5 g/ha, MSO or COC 1.25%, scale 0-100
Excerpt: as §1, §2, §3

AMBEL (Ambrosia elatior) = conditions: AMBEL; a) 3.125 g/ha, MSO or COC 1.25%, scale 0-100
Excerpt: as §1, §2, §3

[4] = system: XANST (Xanthium strumarium); conditions: XANST; a) 12.5 g/ha, MSO or COC 1.25%, scale 0-100
Excerpt: as §1, §2, §3

Cc1c(C(=O)c2cnn(C)c2O)ccc(S(C)(=O)=O)c1C1=NOCC1 [a)]
observed effect (SORBI (Sorghum bicolor)): 10
observed effect (SOLNI (Solanum nigrum)): 30
observed effect (HELAN (Helianthus annua)): 30
observed effect [1]: 0
observed effect [2]: 75
observed effect ([3]; ECHCG; a) 12.5 g/ha): 0
observed effect ([3]; ECHCG; a) 25 g/ha): 0
observed effect (SETVI (Setaria viridis)): 60
observed effect (AMBEL (Ambrosia elatior)): 60
observed effect [4]: 65
